Laboratory results published in patent US11471442B2, “Administration of gut-selective JAK3 inhibitor” (THERAVANCE BIOPHARMA R&D IP, LLC, priority 2020, dated 2022).

Columns and labels:
[1] = Phase 1 multiple ascending dose (MAD, Part B) safety and tolerability in healthy subjects; assay type: in vivo, human; details: for Most frequent TEAEs: Acne / Most frequent TEAEs: Dizziness / Most frequent TEAEs: Headache / Most frequent TEAEs: Pain in extremity / Subjects with TEAEs: Any TEAE / Subjects with TEAEs: Moderate or severe TEAE / Subjects with TEAEs: Serious TEAE / Subjects with TEAEs: TEAE leading to discontinuation / Total number of TEAEs: MAD, n = 6
Source text: This clinical study was the first in human study of a compound of formula (I). The purpose of this study was to assess the safety, tolerability and pharmacokinetics (PK) of the compound of formula (I) through single ascending dose administration (Part A) and multiple dose administrations (Part B) in healthy subjects.
The number and severity of treatment emergent adverse events (TEAE5) following single (Part A) or multiple (Parts B) oral doses of the compound of formula (I) and matching placebo, and changes in safety laboratory assessments, vital signs, and ECGs.
24 healthy, adult male and female subjects were enrolled in Part B. […] cohorts (B1 to B3) of 8 healthy subjects (6 active and 2 placebo) were evaluated.
In each cohort, healthy subjects meeting eligibility criteria were sequentially randomized in a 3:1 ratio to receive either the compound of formula (I) or placebo BID, each morning and evening (approximately 12 hours following the morning dose) for 10 consecutive days of dosing, except for Day 10 where subjects were only received a morning dose. Subjects were dosed in an upright (i.e., seated or standing) position and remained upright for 5 minutes after dosing before a posture change for other study procedures, if applicable. Subjects fasted overnight for at least 9.5 hours prior to morning dose on Day 1 and Day 10. Subjects continued the fast for at least 4 hours post morning dose on these days. For all other morning doses and for all evening doses (i.e., Day 1 evening and Days 2 to 9), subjects were required to fast for at least 2 hours prior and for at least 2 hours following the dose.
Safety was determined by evaluating physical examinations, vital signs, safety 12-lead electrocardiograms (ECGs) monitoring, clinical laboratory tests, and adverse events (AEs). For procedures scheduled to be performed at common times, collection of PK samples was collected as close as possible to the designated time. The cardiodynamic recordings via ECG extractions from the Holter monitor were conducted as close as possible prior to the corresponding PK sampling. Vital signs, followed by safety ECGs, were be taken before the PK sampling (or before the cardiodynamic sampling if scheduled at the same time), unless PK samples were late as a result in which case vital signs were taken following the PK sampling.
Safety analyses were performed using the Safety analysis set. Safety variables include vital signs, adverse events, clinical laboratory results (hematology, chemistry, coagulation, and urinalysis), and ECG parameters, such as Friderica's corrected QT interval (QTcF), PR interval, QT interval, QRS interval, and heart rate, from standard safety digital ECGs. Vital signs were summarized in terms of observed values and changes from baseline.

NK cells = experiment: NK cell counts (immunophenotyping) in MAD cohorts; assay type: in vivo, human; details: day 1 to day 10, MAD
Description: Immunophenotyping was conducted on NK Cells in part B only.

Caco-2 permeation assay = assay type: in vitro ADME; details: human, read-out: Kp (permeability)
splenic NK cell counts = experiment: Immunosuppression model in mice (splenic NK cell counts); assay type: in vivo; details: same or higher doses than required for efficacy in the oxazolone model
Source text: Oxazolone-induced colitis is an experimental model that has a histological resemblance to human ulcerative colitis.

JAK3 = target: T1, JAK3 (Homo sapiens, UniProt P52333); experiment: Protein-adjusted JAK3 IC50 (reference value, data on file); assay type: cell-based
T1 sequence (P52333 1-1124): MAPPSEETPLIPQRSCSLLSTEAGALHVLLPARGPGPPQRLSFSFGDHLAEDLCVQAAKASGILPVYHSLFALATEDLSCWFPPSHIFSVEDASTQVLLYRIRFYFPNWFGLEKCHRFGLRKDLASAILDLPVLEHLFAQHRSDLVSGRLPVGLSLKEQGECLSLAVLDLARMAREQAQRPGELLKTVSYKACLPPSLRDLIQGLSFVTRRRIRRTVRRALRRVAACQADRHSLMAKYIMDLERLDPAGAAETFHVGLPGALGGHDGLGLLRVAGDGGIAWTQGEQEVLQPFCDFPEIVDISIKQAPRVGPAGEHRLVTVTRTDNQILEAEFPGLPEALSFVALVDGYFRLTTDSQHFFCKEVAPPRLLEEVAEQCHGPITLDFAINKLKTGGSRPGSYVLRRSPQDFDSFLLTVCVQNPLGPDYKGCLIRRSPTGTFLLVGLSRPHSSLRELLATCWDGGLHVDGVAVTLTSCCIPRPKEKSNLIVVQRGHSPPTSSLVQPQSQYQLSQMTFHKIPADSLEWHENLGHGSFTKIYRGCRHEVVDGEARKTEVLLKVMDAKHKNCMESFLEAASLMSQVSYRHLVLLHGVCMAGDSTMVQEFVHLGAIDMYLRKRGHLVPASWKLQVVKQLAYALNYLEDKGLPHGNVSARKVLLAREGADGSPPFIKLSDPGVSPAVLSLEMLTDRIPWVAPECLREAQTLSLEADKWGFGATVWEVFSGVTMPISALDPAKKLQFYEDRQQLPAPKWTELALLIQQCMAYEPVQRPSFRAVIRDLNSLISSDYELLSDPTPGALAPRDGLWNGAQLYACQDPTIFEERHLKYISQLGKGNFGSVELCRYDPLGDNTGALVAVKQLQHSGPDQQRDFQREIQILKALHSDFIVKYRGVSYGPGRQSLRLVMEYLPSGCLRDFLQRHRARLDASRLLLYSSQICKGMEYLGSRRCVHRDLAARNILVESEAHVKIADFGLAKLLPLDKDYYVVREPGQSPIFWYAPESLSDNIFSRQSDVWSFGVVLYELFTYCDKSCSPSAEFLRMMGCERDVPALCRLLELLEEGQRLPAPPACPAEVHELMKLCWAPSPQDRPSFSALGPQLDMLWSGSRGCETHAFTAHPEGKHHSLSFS
Source text: In FIG. 11B, gray box indicates day 1 of MAD portion. Symbols and error bars represent the arithmetic mean plus SD, and reference IC50 values shown are from data on file. BID, twice daily; HuPBMC, human peripheral blood mononuclear cell; IC50, concentration producing 50% of maximal inhibition.

CN(C)C/C=C/C(=O)N1CC(COc2cc(-c3ccc(O)cc3)cc3[nH]ncc23)C1 [compound of formula (I)]
serious AEs ([1]; MAD cohorts): No serious AEs | severity of reported treatment-emergent AEs ([1]; MAD cohorts): mild | changes from predose baseline in laboratory assessments (lipid, coagulation, hematology), vital signs or ECGs ([1]; MAD cohorts, any time point postdose): No clinically significant changes | Most frequent TEAEs: Acne ([1]; 100 mg BID oral for 10 days): 1 (17) | Most frequent TEAEs: Dizziness ([1]; 100 mg BID oral for 10 days): 2 (33) | Most frequent TEAEs: Headache ([1]; 100 mg BID oral for 10 days): 2 (33) | Most frequent TEAEs: Pain in extremity ([1]; 100 mg BID oral for 10 days): 1 (17) | Subjects with TEAEs: Any TEAE ([1]; 100 mg BID oral for 10 days): 5 (83) | Subjects with TEAEs: Moderate or severe TEAE ([1]; 100 mg BID oral for 10 days): 0 | Subjects with TEAEs: Serious TEAE ([1]; 100 mg BID oral for 10 days): 0 | Subjects with TEAEs: TEAE leading to discontinuation ([1]; 100 mg BID oral for 10 days): 0 | Total number of TEAEs ([1]; 100 mg BID oral for 10 days): 11 | Most frequent TEAEs: Acne ([1]; 300 mg BID oral for 10 days): 0 | Most frequent TEAEs: Dizziness ([1]; 300 mg BID oral for 10 days): 0 | Most frequent TEAEs: Headache ([1]; 300 mg BID oral for 10 days): 0 | Most frequent TEAEs: Pain in extremity ([1]; 300 mg BID oral for 10 days): 0 | Subjects with TEAEs: Any TEAE ([1]; 300 mg BID oral for 10 days): 1 (17) | Subjects with TEAEs: Moderate or severe TEAE ([1]; 300 mg BID oral for 10 days): 0 | Subjects with TEAEs: Serious TEAE ([1]; 300 mg BID oral for 10 days): 0 | Subjects with TEAEs: TEAE leading to discontinuation ([1]; 300 mg BID oral for 10 days): 0 | Total number of TEAEs ([1]; 300 mg BID oral for 10 days): 9 | Most frequent TEAEs: Acne ([1]; 1000 mg BID oral for 10 days): 0 | Most frequent TEAEs: Dizziness ([1]; 1000 mg BID oral for 10 days): 0 | Most frequent TEAEs: Headache ([1]; 1000 mg BID oral for 10 days): 0 | Most frequent TEAEs: Pain in extremity ([1]; 1000 mg BID oral for 10 days): 0 | Subjects with TEAEs: Any TEAE ([1]; 1000 mg BID oral for 10 days): 0 | Subjects with TEAEs: Moderate or severe TEAE ([1]; 1000 mg BID oral for 10 days): 0 | Subjects with TEAEs: Serious TEAE ([1]; 1000 mg BID oral for 10 days): 0 | Subjects with TEAEs: TEAE leading to discontinuation ([1]; 1000 mg BID oral for 10 days): 0 | Total number of TEAEs ([1]; 1000 mg BID oral for 10 days): 0 | tolerability ([1]; multiple doses up to 1000 mg BID for 10 days): generally well-tolerated | changes in absolute or relative NK cell counts (NK cells): no apparent changes | Papp (Caco-2 permeation assay): < 5 ×10⁻⁶ cm/s | splenic NK cell counts (splenic NK cell counts): unaffected | IC50 (JAK3): 369 nM
